Key:
[1] = system: Puccinia recondita; assay: Puccinia test (wheat)/protective; format: in vivo; settings: protective, application rate 100 g/ha, evaluation 10 days after inoculation, 0% = control, 100% = no infection
Method: Puccinia test (wheat)/protective
To produce a suitable preparation of active compound, 1 part by weight of active compound is mixed with the stated amounts of solvent and emulsifier, and the concentrate is diluted with water to the desired concentration.
To test for protective activity, young plants are sprayed with the preparation of active compound at the stated application rate. After the spray coating has dried, the plants are sprayed with a conidia suspension of Puccinia recondita. The plants remain in an incubation cabin at 20° C. and 100% relative atmospheric humidity for 48 hours.
The plants are then placed in a greenhouse at a temperature of about 20° C. and a relative atmospheric humidity of 80% to promote the development of rust pustules.
Evaluation is carried out 10 days after the inoculation. 0% means an efficacy which corresponds to that of the control, whereas an efficacy of 100% means that no infection is observed.

[2] = logP determination by HPLC (EEC directive 79/831 Annex V. A8); format: physicochemical; settings: gradient method, acetonitrile/0.1% aqueous phosphoric acid, preparation examples
Method: The logP values were determined in accordance with EEC directive 79/831 Annex V. A8 by HPLC (gradient method, acetonitrile/0.1% aqueous phosphoric acid) […]

SMILES	efficacy [1]	chromatographic logP [2]
CON=C(C1=NOCCO1)c1ccccc1CSc1ccn(-c2ccc(Cl)cc2)n1 [Example 1, [2-({[1-(4-chlorophenyl)-1H-pyrazol-3-yl]sulphanyl}methyl)phenyl](5,6-dihydro-1,4,2-dioxazin-3-yl)methanone O-methyloxime]	≥ 98%	3.69
CON=C(C(=O)OC)c1ccccc1CSc1ccn(-c2ccc(Br)cc2)n1 [Example 2, methyl [2-({[1-(4-bromophenyl)-1H-pyrazol-3-yl]sulphanyl}methyl)phenyl](methoxyimino)acetate]		4.07
CNC(=O)C(=NOC)c1ccccc1CSc1ccn(-c2ccc(Br)cc2)n1 [Example 3, N-methyl-[2-( {[1-(4-bromophenyl)-1H-pyrazol-3-yl]sulphanyl}methyl)phenyl]-(methoxyimino)acetamide]		3.5

From patent publication US20030125325A1, “Pyrazolyl benzyl thioethers” (priority 2001, published 2003)
